From patent US20250091983A1, “CYCLOPENTANE AND CYCLOHEXANE VARIANTS OF 6-PHENYLHEXANAMIDE MITOFUSIN ACTIVATORS AND METHODS FOR USE THEREOF” (MITOCHONDRIA EMOTION, INC., priority 2021, published 2025)

Legend:
[1] = Plasma protein binding by equilibrium dialysis, mouse; type: in vitro ADME; conditions: read-out: Plasma Protein Binding (Bound %) Mouse (converted)
Method: (§1) In vitro pharmacokinetic analyses were performed in duplicate using standard methods by WuXi AppTec Co. Ltd. (Shanghai, China). Plasma protein binding was measured by equilibrium dialysis; % bound=(1−[free compound in dialysate]/[total compound in retentate])×100. […] Liver microsome stability of 1 uM compounds in liver microsomes (0.5 mg/ml) after 0, 5, 10, 20, 30, 60 min. incubation was assessed by LC/MS/MS of reaction extracts.

[2] = Plasma protein binding by equilibrium dialysis, human; type: in vitro ADME; conditions: read-out: Plasma Protein Binding (Bound %) Human (converted)
Method: as §1

mitofusin = assay: Dose-response of mitofusin agonist fusogenicity (mitochondrial aspect ratio); type: cell-based, mouse; conditions: Mfn1-KO or Mfn2-KO MEFs; mitochondrial aspect ratio indexed to maximal response of Compound 22; overnight
Method: Wild-type MEFs were prepared from E10.5 c57/bl6 mouse embryos. SV-40 T antigen-immortalized MFN1 null (CRL-2992), MFN2 null (CRL-2993) and MFN1/MFN2 double null MEFs (CRL-2994) were purchased from ATCC.
Mitochondria were then stained with MitoTracker Orange (200 nM; M7510; Invitrogen, Carlsbad, CA, USA). Nuclei were stained with Hoescht ([…]; Invitrogen, Thermo Fisher Scientific Cat: #1-3570). […] Response curves were interpolated using the sigmoidal model using Prism 8 software.

[3] = Liver microsome stability, human; type: in vitro ADME; conditions: 1 uM compound, human liver microsomes 0.5 mg/ml; read-out: Liver Microsomes (t1/2, minutes) Human
Method: as §1

[4] = Liver microsome stability, mouse; type: in vitro ADME; conditions: 1 uM compound, mouse liver microsomes 0.5 mg/ml; read-out: Liver Microsomes (t1/2, minutes) Mouse
Method: as §1

Row | fraction unbound [1] | fraction unbound [2] | EC50 (mitofusin) | half-life at 1 uM [3] | half-life at 1 uM [4] | SMILES
1 | 0.012 | 0.007 | 15.3 nM | – | – | O=C(N[C@H]1CC[C@H](O)CC1)C1CCC(CCCc2ccccc2)C1 (stereo partly drawn) [15 (Exp.), N-(4-hydroxycyclohexyl)-3-(3-phenylpropyl)cyclopentane-1-carboxamide]
2 | – | – | 6.3 nM | 23.7 min | 112 min | O=C(CCCCCc1ccccc1)NC1CCOCC1 [23 (Comp.)]
